Source: patent US20170189504A1, “NOVEL PEPTIDES AND COMBINATION OF PEPTIDES FOR USE IN IMMUNOTHERAPY AGAINST VARIOUS CANCERS” (immatics biotechnologies GmbH, priority 2015, published 2017)

Key:
HLA-A*24 = experiment: MHC binding assay, UV-ligand exchange with β2m ELISA, HLA-A*24 (Table 21); parameters: species or system human; details: binding to HLA-A*24 ranged by peptide exchange yield (UV-ligand exchange, β2m ELISA)
From the text: Candidate peptides for T cell based therapies according to the present invention were further tested for their MHC binding capacity (affinity). The individual peptide-MHC complexes were produced by UV-ligand exchange, where a UV-sensitive peptide is cleaved upon UV-irradiation, and exchanged with the peptide of interest as analyzed. Only peptide candidates that can effectively bind and stabilize the peptide-receptive MHC molecules prevent dissociation of the MHC complexes. To determine the yield of the exchange reaction, an ELISA was performed based on the detection of the light chain ((β2m) of stabilized MHC complexes. The assay was performed as generally described in Rodenko et al. (Rodenko et al., 2006).
96 well MAXISorp plates (NUNC) were coated over night with 2 ug/ml streptavidin in PBS at room temperature, washed 4× and blocked for 1 h at 37° C. in 2% BSA containing blocking buffer. Refolded HLA-A*02:01/MLA-001 monomers served as standards, covering the range of 15-500 ng/ml. Peptide-MHC monomers of the UV-exchange reaction were diluted 100 fold in blocking buffer. Samples were incubated for 1 h at 37° C., washed four times, incubated with 2 ug/ml HRP conjugated anti-β2m for 1 h at 37° C., washed again and detected with TMB solution that is stopped with […]. Absorption was measured at 450 nm. Candidate peptides that show a high exchange yield (preferably higher than 50%, most preferred higher than 75%) are generally preferred for a generation and production of antibodies or fragments thereof, and/or T cell receptors or fragments thereof, as they show sufficient avidity to the MHC molecules and prevent dissociation of the MHC complexes.

CD8+ T cells = experiment: In vitro immunogenicity: T-cell priming with aAPCs loaded with peptide/MHC complexes and anti-CD28 antibody, pMHC multimer readout (Tables 19A, 19B); assay type: cell-based, human; details: in vitro immunogenicity of HLA class I peptides, pMHC multimer readout after priming of CD8+ T cells
Method: In an aspect, the peptides are pre-screened for immunogenicity before being included in the warehouse. By way of example, and not limitation, the immunogenicity of the peptides included in the warehouse is determined by a method comprising in vitro T-cell priming through repeated stimulations of CD8+ T cells from healthy donors with artificial antigen presenting cells loaded with peptide/MHC complexes and anti-CD28 antibody.
In order to obtain information regarding the immunogenicity of the TUMAPs of the present invention, the inventors performed investigations using an in vitro T-cell priming assay based on repeated stimulations of CD8+ T cells with artificial antigen presenting cells (aAPCs) loaded with peptide/MHC complexes and anti-CD28 antibody.
In order to perform in vitro stimulations by artificial antigen presenting cells loaded with peptide-MHC complex (pMHC) and anti-CD28 antibody, the inventors first isolated CD8+ T cells from fresh HLA-A*02 leukapheresis products via positive selection using CD8 microbeads (Miltenyi Biotec, Bergisch-Gladbach, Germany) of healthy donors obtained from the University clinics Mannheim, Germany, after informed consent.
PBMCs and isolated CD8+ lymphocytes were incubated in T-cell medium (TCM) until use consisting of RPMI-Glutamax (Invitrogen, Karlsruhe, Germany) supplemented with 10% heat inactivated human AB serum (PAN-Biotech, Aidenbach, Germany), 100 U/ml Penicillin/100 μg/ml Streptomycin (Cambrex, Cologne, Germany), 1 mM sodium pyruvate (CC Pro, Oberdorla, Germany), 20 μg/ml Gentamycin (Cambrex). 2.5 ng/ml IL7 (PromoCell, Heidelberg, Germany) and 10 U/ml IL-2 (Novartis Pharma, Nurnberg, Germany) were also added to the TCM at this step.
Generation of pMHC/anti-CD28 coated beads, T-cell stimulations and readout was performed in a highly defined in vitro system using four different pMHC molecules per stimulation condition and 8 different pMHC molecules per readout condition.
The purified co-stimulatory mouse IgG2a anti human CD28 Ab 9.3 (Jung et al., 1987) was chemically biotinylated using Sulfo-N-hydroxysuccinimidobiotin as recommended by the manufacturer (Perbio, Bonn, Germany). Beads used were 5.6 μm diameter streptavidin coated polystyrene particles (Bangs Laboratories, Illinois, USA).
pMHC used for positive and negative control stimulations were A*0201/MLA-001 (peptide […] (SEQ ID NO. 303) from modified Melan-A/MART-1) and A*0201/DDX5-001 ([…] from DDX5, SEQ ID NO. 304), respectively.
800.000 beads/200 μl were coated in 96-well plates in the presence of 4×12.5 ng different biotin-pMHC, washed and 600 ng biotin anti-CD28 were added subsequently in a volume of 200 μl. Stimulations were initiated in 96-well plates by co-incubating […] CD8+ T cells with 2×10^5 washed coated beads in 200 μl TCM supplemented with 5 ng/ml IL-12 (PromoCell) for 3 days at 37° C. Half of the medium was then exchanged by fresh TCM supplemented with 80 U/ml IL-2 and incubating was continued for 4 days at 37° C. This stimulation cycle was performed for a total of three times. For the pMHC multimer readout using 8 different pMHC molecules per condition, a two-dimensional combinatorial coding approach was used as previously described (Andersen et al., 2012) with minor modifications encompassing coupling to 5 different fluorochromes. Finally, multimeric analyses were performed by staining the cells with Live/dead near IR dye (Invitrogen, Karlsruhe, Germany), CD8-FITC antibody clone SK1 (BD, Heidelberg, Germany) and fluorescent pMHC multimers. For analysis, a BD LSRII SORP cytometer equipped with appropriate lasers and filters was used. Peptide specific cells were calculated as percentage of total CD8+ cells. Evaluation of multimeric analysis was done using the FlowJo software (Tree Star, Oreg., USA). In vitro priming of specific multimer+ CD8+ lymphocytes was detected by comparing to negative control stimulations.

HLA-A*02 = experiment: MHC binding assay, UV-ligand exchange with β2m ELISA, HLA-A*02 (Table 20); parameters: species or system human; details: binding to HLA-A*02 ranged by peptide exchange yield (UV-ligand exchange, β2m ELISA)
Outline: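 Peptide–MHC complexes made by UV-ligand exchange of a UV-cleavable peptide, diluted 100-fold and captured on streptavidin plates. Stabilized complexes detected by HRP anti-β2m ELISA (1 h, 37° C, A450). Exchange yield derived against refolded HLA-A*02:01/MLA-001 monomer standards (15-500 ng/ml).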

Substance | Peptide exchange (HLA-A*24) | Wells positive [%] (CD8+ T cells) | Peptide exchange (HLA-A*02)
268 (QYLGQIQHI; listed as Homo sapiens) [compound 268] | +++ (50%-75% = +++) | + (<20% = +) | –
165 (DYTTWTALL; listed as Homo sapiens) [compound 165] | ++++ (≧75% = ++++) | + (<20% = +) | –
144 (ALLAFFPGL; listed as Homo sapiens) [compound 144] | – | +++ (50%-69% = +++) | +++ (50%-75% = +++)
166 (YYVESGKLF; listed as Homo sapiens) [compound 166] | ++++ (≧75% = ++++) | +++ (50%-69% = +++) | –
90 (FLQDLEQRL; listed as Homo sapiens) [compound 90] | – | + (<20% = +) | +++ (50%-75% = +++)
167 (NYINRILKL; listed as Homo sapiens) [compound 167] | ++++ (≧75% = ++++) | + (<20% = +) | –
235 (KIIDFLSAL; listed as Homo sapiens) [compound 235] | – | +++ (50%-69% = +++) | +++ (50%-75% = +++)
173 (IYSWILDHF; listed as Homo sapiens) [compound 173] | ++++ (≧75% = ++++) | ++ (20%-49% = ++) | –
168 (KYQDILETI; listed as Homo sapiens) [compound 168] | ++++ (≧75% = ++++) | ++ (20%-49% = ++) | –
269 (YFIDSTNLKTHF; listed as Homo sapiens) [compound 269] | +++ (50%-75% = +++) | + (<20% = +) | –
160 (VYTLDIPVL; listed as Homo sapiens) [compound 160] | ++++ (≧75% = ++++) | ++ (20%-49% = ++) | –
27 (RLMEENWNA; listed as Homo sapiens) [compound 27] | – | +++ (50%-69% = +++) | +++ (50%-75% = +++)
23 (SLFSDEFKV; listed as Homo sapiens) [compound 23] | – | ++++ (≧70% = ++++) | +++ (50%-75% = +++)
233 (HLFDAFVSV; listed as Homo sapiens) [compound 233] | – | ++ (20%-49% = ++) | +++ (50%-75% = +++)
248 (YLDRFLAGV; listed as Homo sapiens) [compound 248] | – | ++ (20%-49% = ++) | ++++ (≧75% = ++++)
35 (FLLPFSTVYL; listed as Homo sapiens) [compound 35] | – | + (<20% = +) | +++ (50%-75% = +++)

Substance | Peptide exchange (HLA-A*24) | Wells positive [%] (CD8+ T cells) | Peptide exchange (HLA-A*02)
5 (GIVAHIQEV; listed as Homo sapiens) [compound 5] | – | + (<20% = +) | +++ (50%-75% = +++)
20 (GLSQITNQL; listed as Homo sapiens) [compound 20] | – | ++ (20%-49% = ++) | +++ (50%-75% = +++)
7 (ILDHEVPSL; listed as Homo sapiens) [compound 7] | – | ++ (20%-49% = ++) | +++ (50%-75% = +++)
12 (GLLPLLHRA; listed as Homo sapiens) [compound 12] | – | ++++ (≧70% = ++++) | ++++ (≧75% = ++++)
229 (AILAHLNTV; listed as Homo sapiens) [compound 229] | – | ++ (20%-49% = ++) | ++++ (≧75% = ++++)
151 (SVLDSTAKV; listed as Homo sapiens) [compound 151] | – | ++ (20%-49% = ++) | ++ (20%-49% = ++)
232 (KIFPAALQLV; listed as Homo sapiens) [compound 232] | – | ++ (20%-49% = ++) | +++ (50%-75% = +++)
141 (FLDKVLVAA; listed as Homo sapiens) [compound 141] | – | + (<20% = +) | +++ (50%-75% = +++)
92 (GLLFSLRSV; listed as Homo sapiens) [compound 92] | – | ++ (20%-49% = ++) | ++++ (≧75% = ++++)
4 (KLMPGTYTL; listed as Homo sapiens) [compound 4] | – | + (<20% = +) | ++++ (≧75% = ++++)
96 (LLVSHLYLV; listed as Homo sapiens) [compound 96] | – | ++ (20%-49% = ++) | ++ (20%-49% = ++)
138 (ALLAKILQI; listed as Homo sapiens) [compound 138] | – | ++ (20%-49% = ++) | +++ (50%-75% = +++)
18 (ILLDLTDNRL; listed as Homo sapiens) [compound 18] | – | + (<20% = +) | +++ (50%-75% = +++)
230 (KLQNIMMLL; listed as Homo sapiens) [compound 230] | – | ++++ (≧70% = ++++) | ++ (20%-49% = ++)
11 (ALSPSYLTV; listed as Homo sapiens) [compound 11] | – | ++ (20%-49% = ++) | +++ (50%-75% = +++)
